Data reported in PMC11990670, “Exploring the Volatility, Phase Transitions, and Solubility Properties of Five Halogenated Benzaldehydes” (Molecules, 2025).
Marks after values point to notes of the source that are not given here.

What was measured:
[1] = Vapor pressures of crystalline and liquid phases, static method with capacitance diaphragm gauge; format: physicochemical
From the text: A previously described and tested static apparatus was used to measure the vapor pressures of the condensed phases (both crystalline and liquid) of the five compounds studied. This installation employs MKS capacitance diaphragm absolute gauges, operating at self-regulated constant temperatures. Our lab is equipped with three pressure gauges. Gauge I, a Baratron 631A01TBEH (MKS instruments, Andover, MA, USA) (Tgauge = 423 K), measures pressures in the range of 0.5 to 1.3 × 10^2 Pa and operates within a temperature range of 253 to 413 K. Gauge II, the instrument used in this study, is a Baratron 631A11TBFP (MKS instruments, Andover, MA, USA) (Tgauge = 473 K), capable of measuring pressures from 0.5 to 1.3 × 10^3 Pa within a temperature range of 253 to 433 K and gauge III, a Baratron 631D02T8FP (MKS instruments, Andover, MA, USA) (Tgauge = 473 K), designed to measure pressures between 0.5 Pa and 2.6 × 10^2 Pa, also within a temperature range of 253 to 433 K. The temperatures of the samples were measured using a Pt100 platinum resistance thermometer, calibrated by comparison with a standard platinum resistance thermometer (SPRT: Tinsley Precision Instruments Ltd, London, England). To prevent vapor condensation, the tubing connecting the cell containing the condensed sample to the pressure gauge is maintained at a temperature higher than that of the sample but lower than that of the gauge. The uncertainty in temperature measurements is estimated to be u(T/K) = ±0.01, and the expanded uncertainties (0.95 confidence level, k = 2) in pressure measurements are given by the expression U(p/Pa) = 0.1 + 0.0050 (p/Pa) for the gauge used. Samples were thoroughly degassed before starting the vapor pressure measurements, ensuring consistent readings at specific temperatures and eliminating any residual volatile substances, including water.

[2] = Gibbs energy of hydration and Henry's law volatility constant calculated from sublimation and solubility data; settings: 25 °C
Method: (§1) The concentration was measured by absorbances at 260 nm for 4-chlorobenzaldehyde, 263 nm for 4-bromobenzaldehyde and 2,4-dichlorobenzaldehyde, 297 nm for 2,6-dichlorobenzaldehyde, and 306 nm for 2,3-dichlorobenzaldehyde, using a Cary-60 UV–vis (Agilent) spectrophotometer. X-ray diffraction (XRD) and differential scanning calorimetry of residual solids were used to identify the eventual phase transformations. The purified samples of each compound studied were used for all experimental determinations, including the solubility measurements. After reaching the equilibrium, the residual solid was dried and analyzed using both DSC and XRD. The melting properties obtained from DSC were compared with those of the original purified sample, following the same procedure for the XRD analysis. […] As an example, the supporting information includes two thermograms and two XRD patterns for 2,4-dichlorobenzaldehyde (Figures S1 and S2). […] Equation (4) was derived from Equation (5), which is widely applicable to the solubility of solids.(4) ΔhydrGm°/kJ·mol^−1=9.17−5.71·log10(Scr/mol·m^−3)−ΔcrgGm°/kJ·mol^−1 (5) S=p^°/RTexpΔcrgGm°+ΔhydrGm°/−RT
The standard states in Equation (5) are p° = 1 × 10^5 Pa for ΔcrgGm° , c° = 1 mol·L^−1 for ΔhydrGm° and s° = 1 mol·m^−3 for solubility. Using the experimental results of ΔhydrGm° , calculated through Equation (4), the values of Henry’s law volatility constants, KHpc, were determined in the logarithm form by Equation (6), that was adapted from Modarressi et al..

[3] = pH of the saturated aqueous solutions; format: physicochemical; settings: saturated aqueous solution of the solubility experiment
Method: as §1
An excess amount of each compound was added to a known volume of water in triplicate. […] After stirring, the solid phase was allowed to settle for 2 h. The pH of the saturated solutions was measured using a Mettler Toledo (Greifensee, Switzerland) FiveEasy F20 pH Meter calibrated with standard aqueous solutions (pH 7.00 and 4.01 or 10.1). Those solutions were then filtered through a 0.22 μm syringe hydrophilic filter (13 mm, PTFE, Labfil, Zhejiang, China) and diluted to the required concentration. The concentration of the compounds, expressed in molarity, was measured by absorbances using a Cary-60 UV–vis spectrophotometer (Agilent Technologies, Santa Clara, CA, USA) at 298.15 K (single cell Peltier accessory, ±0.15 K). The results reported in Table 6 are averaged from at least three replicates. Calibration was performed using solutions of known concentrations of each substance in water. These solutions were prepared by adding a precise mass of the substance and a specific volume of the solvent to a flask, then mixing until the substance was fully dissolved. The absorbance of these solutions was measured, and calibration curves were created.

Structure (SMILES): O=Cc1cccc(Cl)c1Cl [2,3-Dichlorobenzaldehyde]
- vapor pressure p ([1]; crystalline phase, T = 284.21 K): 0.49 Pa
- vapor pressure p ([1]; crystalline phase, T = 286.16 K): 0.63 Pa
- vapor pressure p ([1]; crystalline phase, T = 288.13 K): 0.78 Pa
- vapor pressure p ([1]; crystalline phase, T = 290.09 K): 0.99 Pa
- vapor pressure p ([1]; crystalline phase, T = 292.06 K): 1.26 Pa
- vapor pressure p ([1]; crystalline phase, T = 294.04 K): 1.58 Pa
- vapor pressure p ([1]; crystalline phase, T = 296.22 K): 2.00 Pa
- vapor pressure p ([1]; crystalline phase, T = 298.17 K): 2.47 Pa
- vapor pressure p ([1]; crystalline phase, T = 299.97 K): 3.02 Pa
- vapor pressure p ([1]; crystalline phase, T = 302.18 K): 3.78 Pa
- vapor pressure p ([1]; crystalline phase, T = 303.89 K): 4.58 Pa
- vapor pressure p ([1]; crystalline phase, T = 305.78 K): 5.63 Pa
- vapor pressure p ([1]; crystalline phase, T = 308.08 K): 7.12 Pa
- vapor pressure p ([1]; crystalline phase, T = 309.86 K): 8.45 Pa
- vapor pressure p ([1]; crystalline phase, T = 312.03 K): 10.58 Pa
- vapor pressure p ([1]; crystalline phase, T = 313.92 K): 12.78 Pa
- vapor pressure p ([1]; crystalline phase, T = 315.60 K): 15.22 Pa
- vapor pressure p ([1]; crystalline phase, T = 317.96 K): 18.67 Pa
- vapor pressure p ([1]; crystalline phase, T = 319.59 K): 21.97 Pa
- vapor pressure p ([1]; crystalline phase, T = 321.86 K): 27.35 Pa
- vapor pressure p ([1]; crystalline phase, T = 323.56 K): 31.92 Pa
- vapor pressure p ([1]; crystalline phase, T = 325.70 K): 39.35 Pa
- vapor pressure p ([1]; crystalline phase, T = 327.48 K): 45.52 Pa
- vapor pressure p ([1]; crystalline phase, T = 329.63 K): 56.32 Pa
- vapor pressure p ([1]; crystalline phase, T = 331.62 K): 65.87 Pa
- vapor pressure p ([1]; liquid phase, T = 335.54 K): 91.33 Pa
- vapor pressure p ([1]; liquid phase, T = 337.55 K): 103.4 Pa
- vapor pressure p ([1]; liquid phase, T = 339.54 K): 117.4 Pa
- vapor pressure p ([1]; liquid phase, T = 341.49 K): 133.6 Pa
- vapor pressure p ([1]; liquid phase, T = 343.48 K): 150.6 Pa
- vapor pressure p ([1]; liquid phase, T = 345.45 K): 169.9 Pa
- vapor pressure p ([1]; liquid phase, T = 347.44 K): 189.1 Pa
- vapor pressure p ([1]; liquid phase, T = 349.41 K): 214.0 Pa
- vapor pressure p ([1]; liquid phase, T = 351.50 K): 240.6 Pa
- vapor pressure p ([1]; liquid phase, T = 353.48 K): 267.2 Pa
- vapor pressure p ([1]; liquid phase, T = 355.36 K): 297.6 Pa
- vapor pressure p ([1]; liquid phase, T = 357.43 K): 335.9 Pa
- vapor pressure p ([1]; liquid phase, T = 359.33 K): 371.6 Pa
- vapor pressure p ([1]; liquid phase, T = 361.39 K): 419.6 Pa
- vapor pressure p ([1]; liquid phase, T = 363.27 K): 461.9 Pa
- vapor pressure p ([1]; liquid phase, T = 365.34 K): 516.4 Pa
- vapor pressure p ([1]; liquid phase, T = 367.35 K): 569.4 Pa
- vapor pressure p ([1]; liquid phase, T = 369.27 K): 630.4 Pa
- vapor pressure p ([1]; liquid phase, T = 371.17 K): 695.2 Pa
- vapor pressure p ([1]; liquid phase, T = 373.23 K): 767.3 Pa
- vapor pressure p ([1]; liquid phase, T = 375.13 K): 843.4 Pa
- vapor pressure p ([1]; liquid phase, T = 377.17 K): 930.5 Pa
- vapor pressure p ([1]; liquid phase, T = 379.07 K): 1011 Pa
- vapor pressure p ([1]; liquid phase, T = 381.03 K): 1104 Pa
- vapor pressure p ([1]; supercooled liquid, T = 327.59 K): 54.84 ^d Pa
- vapor pressure p ([1]; supercooled liquid, T = 329.66 K): 62.05 ^d Pa
- vapor pressure p ([1]; supercooled liquid, T = 331.60 K): 71.02 ^d Pa
- vapor pressure p ([1]; supercooled liquid, T = 333.65 K): 80.84 ^d Pa
- Gibbs energy of hydration ΔhydrGm° ([2]; calculated by Equation (4)): -3.99 kcal/mol
- log10(KHpc/kPa·m^3·mol^−1) Henry's law volatility constant ([2]; calculated by Equation (6)): −2.53
- KHpc×10^3 Henry's law volatility constant ([2]; value is KHpc multiplied by 10^3): 2.95 kPa·m^3·mol^−1
- pH of the saturated solution [3]: 6.43
